Target: T1, human P2X2/3 receptors (Homo sapiens, UniProt P56373+Q9UBL9)
T1 construct: expressed in transfected cells
T1 sequence (Q9UBL9 1-404 isoform Q9UBL9-2): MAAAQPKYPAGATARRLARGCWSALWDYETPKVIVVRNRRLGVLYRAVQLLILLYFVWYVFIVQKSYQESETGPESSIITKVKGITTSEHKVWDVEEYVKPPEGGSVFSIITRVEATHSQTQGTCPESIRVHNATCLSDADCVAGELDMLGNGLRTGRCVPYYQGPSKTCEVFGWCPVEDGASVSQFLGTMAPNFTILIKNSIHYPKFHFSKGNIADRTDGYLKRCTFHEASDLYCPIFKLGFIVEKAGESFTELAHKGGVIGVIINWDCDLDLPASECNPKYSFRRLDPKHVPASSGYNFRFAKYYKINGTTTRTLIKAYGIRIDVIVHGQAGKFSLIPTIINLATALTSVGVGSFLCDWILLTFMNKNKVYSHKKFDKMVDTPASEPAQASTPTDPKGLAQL
T1 sequence (P56373 1-397): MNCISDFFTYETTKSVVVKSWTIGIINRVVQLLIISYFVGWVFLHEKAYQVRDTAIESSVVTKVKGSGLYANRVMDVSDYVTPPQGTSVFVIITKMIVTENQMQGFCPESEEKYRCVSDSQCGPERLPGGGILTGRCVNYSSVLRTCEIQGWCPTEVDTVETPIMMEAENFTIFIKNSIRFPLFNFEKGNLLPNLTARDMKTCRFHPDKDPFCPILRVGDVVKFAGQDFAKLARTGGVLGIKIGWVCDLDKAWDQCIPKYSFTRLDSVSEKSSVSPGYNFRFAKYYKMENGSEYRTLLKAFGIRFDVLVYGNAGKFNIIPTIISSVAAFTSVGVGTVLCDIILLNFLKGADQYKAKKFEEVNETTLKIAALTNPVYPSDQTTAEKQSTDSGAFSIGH
Experiment: Confocal binding versus activation of fATP at hP2X2/3 in HEK293 cells
Conditions: hP2X2/3, activation rescaled to value at maximal concentration
Method: For the detection of ligand binding, the cells were incubated with the fluorescent ATP derivatives in chambered coverslips or 96-well plates with cover-slip bottoms. The surface was coated with 0.1 mg/mL of poly-L-lysine for 12 h and washed twice with PBS before seeding the cells at […] density. The cells were suspended 24 h after induction and allowed to settle for two hours before being utilised for the measurements. The solutions were freshly prepared before each experiment. The bulk solution was counter-stained with the red fluorescence dye Dy647. Each confocal voxel covering the cell membrane contained both the signal from the bound ligand and the signal from ligands in the bulk solution. This additional signal, e.g., the fraction of the bulk solution inside a voxel, varied from pixel to pixel and can hardly be described theoretically.
Because the difference in image noise contributed within both the bulk solution and the cells, the cell–bulk interfaces were selected using a Sobel operator [31] and appropriate filters/thresholds on the reference fluorophore signal. Note that only cell–bulk boundaries and not cell–cell boundaries were included in this approach. The method was described in detail previously.
The concentration–binding relationships were normalised to their maximum relative fluorescence intensities at a saturating fATP or α,βMe-fATP concentration. […]

Concentration at which normalised concentration-activation and concentration-binding curves intersect: approximately 0.5 µM
Structure (SMILES): COCC[N+]1=C(C=CC=C2N(CCCCCC(=O)NCCCCCCSc3nc(N)c4ncn(C5OC(COP(=O)(O)OP(=O)(O)OP(=O)(O)O)C(O)C5O)c4n3)c3ccc(S(=O)(=O)O)cc3C2(C)C)C(C)(C)c2cc(S(=O)(=O)[O-])ccc21 (stereo not shown) [fATP, 2-[DY-547P1]-AHT-ATP]

Source: article PMC11352409, “Subtype-Specific Ligand Binding and Activation Gating in Homomeric and Heteromeric P2X Receptors” (Biomolecules, 2024)
